# From US10149876B2, “Tripterygium wilfordii extracts to overcome chemotherapy resistance” (WESTERN UNIVERSITY OF HEALTH SCIENCES, priority 2012, dated 2018)
# Several values for one entry are separate records, joined by “and”; a condition that tells them apart may be missing. Equal entries are not always repeated. Where two headings read alike, the source gives them in different places.
# Legend:
# BT474-TxR cells = assay: SRB cell viability assay, Herceptin-resistant BT474-TxR cells; assay type: cell-based, human; conditions: 72 h
# Protocol: PC3-TxR cells were plated into sterile, F-bottom Cellstar® 96 well cell culture plates with lids (Cat #655180, Purchased from Greiner Bio-one, Monroe, N.C.) by placing into each well, 100 μl of medium containing 3000 cells in RPMI 1640 supplemented with 10% fetal bovine serum (Thermo Scientific, Logan, Utah) and a solution of penicillin (100 U/ml) and streptomycin (100 μg/ml) (Life Technologies Grand Island, N.Y.). The cells were at passage 52 at the time of plating. Triplicate wells were assigned to each experimental condition tested, and a 24 hour recovery period for the cells following the seeding of the wells was allowed. During the recovery period, the cells were incubated at 37° C. and 5% CO2.
# The LGT-E was prepared by adding an appropriate amount of LGT-E powder to DMSO to form a 500 mg/ml stock solution. The stock solution was alternately vortexed and sonicated until the LGT-E powder went into solution. The stock solution was diluted in RPMI 1640 medium (Mediatech, Manassas, Va., or Life Technologies Grand Island, NY) to reach the desired concentrations of LGT-E (e.g., 12, 25, or 60 μg/ml).
# Pretreatment of the cells with LGT-E was carried out by aspirating the media from the wells, followed by adding 50 μl of LGT-E solution containing concentrations of either 12 or 25 μg/ml of LGT-E solution and incubation of the cells for two hours under conditions of 37° C. and 5% CO2.
# Media was aspirated from each well, and replaced with a 10% solution of cold trichloroacetic acid (TCA) (Cat #: T6399, purchased from Sigma-Aldrich), and incubated for one hour at 4° C. After the TCA incubation, the TCA solution was aspirated, and the cells were washed five times with tap water. After removing the last wash, the plates were left with lids off at room temperature until the surfaces were dry, which took one to two hours. Then 50 μl of a 0.4% solution of sul-forhodamine B (SRB) sodium salt (Cat #: S9012, purchased from Sigma-Aldrich) was added to each well and the plates were incubated at room temperature for 20 to 30 minutes. Afterwards, the wells were washed five times with a 1% acetic acid solution in 10 mM TRIS base (Cat#: 161-0719, purchased from Bio-Rad Laboratories, Hercules, Calif.). The plates were subsequently left to dry for several hours or overnight. SRB that remained in the dried wells was solubilized by adding 100 μl of SRB solubilization solution (10 mM TRIS base) to each well, and placing the plates either on a gently-moving shaker or letting the plates remain stationary at room temperature until the SRB dissolves, which takes about five to ten minutes. The amount of SRB in each well, which correlated directly to the number of living cells at fixation, was determined spectrophotometrically at an absorbance of 565 nm by a microplate reader.
# SkBr3-TxR cells = assay: SRB cell viability assay, lapatinib-resistant SkBr3-TxR cells; assay type: cell-based, human; conditions: for viability at 0.001 µM / viability at 0.02 µM / viability at 0.067 µM / viability at 0.2 µM / viability at 0.67 µM / viability at 2 µM / viability at 6.7 µM / viability at 20 µM / IC50: Homo sapiens; for viability at 0.067 µM: Lapatinib 0.067 μM
# Source text: FIG. 13 summarizes the data of Tables 32-33 in a graphical format.
# FIG. 14 summarizes the data of Tables 34 and 35 in a graphical format.
smiles,measurement,setting,value
CS(=O)(=O)CCNCc1ccc(-c2ccc3ncnc(Nc4ccc(OCc5cccc(F)c5)c(Cl)c4)c3c2)o1 [lapatinib],mean A at 565 nm,"BT474-TxR cells; Lapatinib 0.2 μM, no LGT-E pre-treatment (control to Table 30), background = 0.047",0.905
same,mean A at 565 nm,"BT474-TxR cells; Lapatinib 0.2 μM, pre-treated with 25 μg/ml LGT-E, background = 0.047",0.650
same,mean A at 565 nm,"BT474-TxR cells; Lapatinib 0.2 μM, pre-treated with […] LGT-E, background = 0.045",0.707
same,mean A at 565 nm,"BT474-TxR cells; Lapatinib 0.67 μM, no LGT-E pre-treatment (control to Table 28), background = 0.045",0.780
same,mean A at 565 nm,"BT474-TxR cells; Lapatinib 0.67 μM, no LGT-E pre-treatment (control to Table 30), background = 0.047",0.829
same,mean A at 565 nm,"BT474-TxR cells; Lapatinib 0.67 μM, pre-treated with 25 μg/ml LGT-E, background = 0.047",0.549
same,mean A at 565 nm,"BT474-TxR cells; Lapatinib 0.67 μM, pre-treated with […] LGT-E, background = 0.045",0.598
same,mean A at 565 nm,"BT474-TxR cells; Lapatinib 2 μM, no LGT-E pre-treatment (control to Table 28), background = 0.045",0.739
same,mean A at 565 nm,"BT474-TxR cells; Lapatinib 2 μM, no LGT-E pre-treatment (control to Table 30), background = 0.047",0.712
same,mean A at 565 nm,"BT474-TxR cells; Lapatinib 2 μM, pre-treated with 25 μg/ml LGT-E, background = 0.047",0.482
same,mean A at 565 nm,"BT474-TxR cells; Lapatinib 2 μM, pre-treated with […] LGT-E, background = 0.045",0.533
same,mean A at 565 nm,"BT474-TxR cells; Lapatinib 6.7 μM, no LGT-E pre-treatment (control to Table 28), background = 0.045",0.674
same,mean A at 565 nm,"BT474-TxR cells; Lapatinib 6.7 μM, no LGT-E pre-treatment (control to Table 30), background = 0.047",0.648
same,mean A at 565 nm,"BT474-TxR cells; Lapatinib 6.7 μM, pre-treated with 25 μg/ml LGT-E, background = 0.047",0.355
same,mean A at 565 nm,"BT474-TxR cells; Lapatinib 6.7 μM, pre-treated with […] LGT-E, background = 0.045",0.461
same,mean A at 565 nm,"BT474-TxR cells; Lapatinib 20 μM, no LGT-E pre-treatment (control to Table 28), background = 0.045",0.594
same,mean A at 565 nm,"BT474-TxR cells; Lapatinib 20 μM, no LGT-E pre-treatment (control to Table 30), background = 0.047",0.515
same,mean A at 565 nm,"BT474-TxR cells; Lapatinib 20 μM, pre-treated with 25 μg/ml LGT-E, background = 0.047",0.239
same,mean A at 565 nm,"BT474-TxR cells; Lapatinib 20 μM, pre-treated with […] LGT-E, background = 0.045",0.405
same,viability at 0.001 µM,"SkBr3-TxR cells; Lapatinib 0.001 μM, 72 h, no LGT-E pre-treatment (control to Table 34)",100%
same,viability at 0.001 µM,"SkBr3-TxR cells; Lapatinib 0.001 μM, 72 h, pre-treated with […] LGT-E",100%
same,viability at 0.001 µM,"SkBr3-TxR cells; Lapatinib 0.001 μM, no chemosensitizing pre-treatment (Table 33)",100%
same,viability at 0.02 µM,"SkBr3-TxR cells; Lapatinib 0.02 μM, 72 h, no LGT-E pre-treatment (control to Table 34)",99.2%
same,viability at 0.02 µM,"SkBr3-TxR cells; Lapatinib 0.02 μM, 72 h, pre-treated with […] LGT-E",97.2%
same,viability at 0.02 µM,"SkBr3-TxR cells; Lapatinib 0.02 μM, no chemosensitizing pre-treatment (Table 33)",103%
same,viability at 0.067 µM,"SkBr3-TxR cells; 72 h, no LGT-E pre-treatment (control to Table 34)",96.2%
same,viability at 0.067 µM,"SkBr3-TxR cells; 72 h, pre-treated with […] LGT-E",92.6%
same,viability at 0.067 µM,SkBr3-TxR cells; no chemosensitizing pre-treatment (Table 33),102%
same,viability at 0.2 µM,"SkBr3-TxR cells; Lapatinib 0.2 μM, 72 h, no LGT-E pre-treatment (control to Table 34)",93.1%
same,viability at 0.2 µM,"SkBr3-TxR cells; Lapatinib 0.2 μM, 72 h, pre-treated with […] LGT-E",90.3%
same,viability at 0.2 µM,"SkBr3-TxR cells; Lapatinib 0.2 μM, no chemosensitizing pre-treatment (Table 33)",97.2%
same,viability at 0.67 µM,"SkBr3-TxR cells; Lapatinib 0.67 μM, 72 h, no LGT-E pre-treatment (control to Table 34)",88.8%
same,viability at 0.67 µM,"SkBr3-TxR cells; Lapatinib 0.67 μM, 72 h, pre-treated with […] LGT-E",75.9%
same,viability at 0.67 µM,"SkBr3-TxR cells; Lapatinib 0.67 μM, no chemosensitizing pre-treatment (Table 33)",91.8%
same,viability at 2 µM,"SkBr3-TxR cells; Lapatinib 2 μM, 72 h, no LGT-E pre-treatment (control to Table 34)",70.4%
same,viability at 2 µM,"SkBr3-TxR cells; Lapatinib 2 μM, 72 h, pre-treated with […] LGT-E",60.9%
same,viability at 2 µM,"SkBr3-TxR cells; Lapatinib 2 μM, no chemosensitizing pre-treatment (Table 33)",77.2%
same,viability at 6.7 µM,"SkBr3-TxR cells; Lapatinib 6.7 μM, 72 h, no LGT-E pre-treatment (control to Table 34)",47.7%
same,viability at 6.7 µM,"SkBr3-TxR cells; Lapatinib 6.7 μM, 72 h, pre-treated with […] LGT-E",34.9%
same,viability at 6.7 µM,"SkBr3-TxR cells; Lapatinib 6.7 μM, no chemosensitizing pre-treatment (Table 33)",46.4%
same,viability at 20 µM,"SkBr3-TxR cells; Lapatinib 20 μM, 72 h, no LGT-E pre-treatment (control to Table 34)",25.4%
same,viability at 20 µM,"SkBr3-TxR cells; Lapatinib 20 μM, 72 h, pre-treated with […] LGT-E",18.3%
same,viability at 20 µM,"SkBr3-TxR cells; Lapatinib 20 μM, no chemosensitizing pre-treatment (Table 33)",26.4%
same,IC50,SkBr3-TxR cells; read-out: IC50 of drug when cells pre-treated with Chemosensitizing Agent before drug treatment,3.92 µM and 2.28 µg/mL
same,IC50,SkBr3-TxR cells; read-out: IC50 of drug when cells treated with drug only,6.2 µM and 3.6 µg/mL
same,mean A at 565 nm,"SkBr3-TxR cells; Lapatinib 0.001 μM, 72 h, no LGT-E pre-treatment (control to Table 34), background = 0.044",2.294
same,mean A at 565 nm,"SkBr3-TxR cells; Lapatinib 0.001 μM, no chemosensitizing pre-treatment (Table 33), background = 0.047",2.298
same,mean A at 565 nm,"SkBr3-TxR cells; Lapatinib 0.02 μM, 72 h, no LGT-E pre-treatment (control to Table 34), background = 0.044",2.276
same,mean A at 565 nm,"SkBr3-TxR cells; Lapatinib 0.02 μM, 72 h, pre-treated with […] LGT-E, background = 0.044",2.151
same,mean A at 565 nm,"SkBr3-TxR cells; Lapatinib 0.02 μM, no chemosensitizing pre-treatment (Table 33), background = 0.047",2.357
same,mean A at 565 nm,"SkBr3-TxR cells; Lapatinib 0.2 μM, 72 h, pre-treated with […] LGT-E, background = 0.044",1.999
same,mean A at 565 nm,"SkBr3-TxR cells; Lapatinib 0.2 μM, no chemosensitizing pre-treatment (Table 33), background = 0.047",2.234
same,mean A at 565 nm,"SkBr3-TxR cells; Lapatinib 0.67 μM, 72 h, no LGT-E pre-treatment (control to Table 34), background = 0.044",2.038
same,mean A at 565 nm,"SkBr3-TxR cells; Lapatinib 2 μM, 72 h, no LGT-E pre-treatment (control to Table 34), background = 0.044",1.614
same,mean A at 565 nm,"SkBr3-TxR cells; Lapatinib 2 μM, 72 h, pre-treated with […] LGT-E, background = 0.044",1.348
same,mean A at 565 nm,"SkBr3-TxR cells; Lapatinib 2 μM, no chemosensitizing pre-treatment (Table 33), background = 0.047",1.775
same,mean A at 565 nm,"SkBr3-TxR cells; Lapatinib 6.7 μM, 72 h, no LGT-E pre-treatment (control to Table 34), background = 0.044",1.095
same,mean A at 565 nm,"SkBr3-TxR cells; Lapatinib 6.7 μM, 72 h, pre-treated with […] LGT-E, background = 0.044",0.772
same,mean A at 565 nm,"SkBr3-TxR cells; Lapatinib 6.7 μM, no chemosensitizing pre-treatment (Table 33), background = 0.047",1.066
same,mean A at 565 nm,"SkBr3-TxR cells; Lapatinib 20 μM, 72 h, no LGT-E pre-treatment (control to Table 34), background = 0.044",0.584
same,mean A at 565 nm,"SkBr3-TxR cells; Lapatinib 20 μM, 72 h, pre-treated with […] LGT-E, background = 0.044",0.406
same,mean A at 565 nm,"SkBr3-TxR cells; Lapatinib 20 μM, no chemosensitizing pre-treatment (Table 33), background = 0.047",0.607
